Results: patent publication US11376326B2, “GPC3-targeting therapeutic agent which is administered to patient for whom the GPC3-targeting therapeutic agent is effective” (CHUGAI SEIYAKU KABUSHIKI KAISHA, priority 2015, dated 2022)
Where two headings read alike, the source gives them in different places.

Columns and labels:
[1] = test system: advanced hepatocellular carcinoma; details: Asian trial; cited from earlier work
[2] = test system: human cell line HepG2 strongly expressing GPC3; assay: Antitumor effect in mouse graft models using HepG2; format: in vivo; details: HepG2 graft mice; GC33 or ag-GC33 5 mg/kg tail vein once a week x3; sorafenib 5 mg/kg oral five times a week for 3 weeks; from day 18; FIG. 1
Description: GC33 or ag-GC33 was administered at 5 mg/kg to the tail vein of each mouse once a week a total of three times from 18 days after HepG2 transplantation. Sorafenib was orally administered at 5 mg/kg to each mouse five times a week for 3 weeks from 18 days after HepG2 transplantation.

[3] = test system: advanced hepatocellular carcinoma; details: cited from earlier work
[4] = test system: sGPC3-N; assay: sGPC3-N in mouse plasma by ELISA (GT30/GT607) at completion of antitumor evaluation; format: in vivo; details: HepG2 graft mice, FIG. 2
Description: (§1) At the completion of the antitumor effect evaluation, plasma was collected from each mouse. Fragments of a soluble form of GPC3 were assayed by two types of ELISA methods differing in the combination of anti-GPC3 antibodies. In order to detect the fragments of a soluble form of GPC3 in ELISA, mouse monoclonal antibodies binding to the N-terminal subunit of human GPC3 were prepared as described in WO2004/022739. Hereinafter, the obtained antibodies are referred to as GT30 and GT607 for the sake of convenience. Also, mouse monoclonal antibodies binding to the C-terminal subunit of human GPC3 were prepared as described in WO2004/022739. Hereinafter, the obtained antibodies are referred to as GT96 and M3C11 for the sake of convenience. […]
(§2) Specifically, the detection of sGPC3-N and the detection of sGPC3-C by ELISA were performed as follows: first, the GT30 antibody diluted to 1 μg/mL with a carbonatebicarbonate buffer (manufactured by Sigma-Aldrich Co., LLC) or the M3C11 antibody adjusted to 128 μg/mL in the same way thereas was added at 50 μL/well to a 96-well microplate (manufactured by Meso Scale Discovery (MSD), Multi-array 96-well plate) and stirred at room temperature for 1 hour. […] After washing five times with a washing solution, a substrate solution (manufactured by Meso Scale Discovery (MSD), MSD Read Buffer T (4×) with Surfactant) was added thereto at 100 μL/well. […]

[5] = test system: advanced hepatocellular carcinoma; details: cited from earlier work; remark: listed apart in the source
[6] = target: human GPC3 (Homo sapiens, UniProt P51654); details: cited from earlier work
[7] = test system: sGPC3-C; assay: sGPC3-C in mouse plasma by ELISA (GT96/M3C11) at completion of antitumor evaluation; format: in vivo; details: HepG2 graft mice, FIG. 3
Description: as §1, §2

Compound | survival duration [1] [months] | time to tumor radiological progression [1] [months] | tumor enlargement inhibitory effect (tumor volume) [2] | time to tumor radiological progression ([3]; European and American trial) [months] | survival duration ([3]; SHARP trial) [months] | sGPC3-N level in plasma [4] | HR of survival duration ([5]; both trials, versus placebo) | objective response rate ([5]; in vivo) | time to symptomatic progression ([5]; in vivo) | binding affinity to human GPC3 [6] | sGPC3-C level in plasma [7]
CNC(=O)c1cc(Oc2ccc(NC(=O)Nc3ccc(Cl)c(C(F)(F)F)c3)cc2)ccn1 [sorafenib] | 6.5 | 2.8 | the tumor enlargement inhibitory effect was weaker than that of GC33 | 5.5 | 10.7 | equivalent to the GC33 administration group | 0.68 | low | no prolongation | – | –
GC33: recombinant humanized IgG1 monoclonal antibody binding to human GPC3 with high affinity (WO2006/006693) | – | – | tumor enlargement was inhibited as compared with the control group | – | – | a lower level of sGPC3-N was found as compared with the control group | – | – | – | high affinity | higher in the GC33 administration group compared with the control group, the ag-GC33 group, and the sorafenib group
